Reference: PubChem BioAssay (NCI)
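Method: 48-hour compound exposure of cells in 96-well plates, five concentrations, linear interpolation of endpoints. GI50: concentration for 50% inhibition of growth. The concentration for full growth arrest is given as TGI.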

Tests used:
Assay in all cases: NCI tumour cell line growth inhibition, 48 h
786-0 renal = system: 786-0 renal
T-47D breast = system: T-47D breast
UACC-62 melanoma = system: UACC-62 melanoma
UO-31 renal = system: UO-31 renal
NCI-H23 lung = system: NCI-H23 lung
HCC-2998 colon = system: HCC-2998 colon
COLO 205 colon = system: COLO 205 colon
HT29 colon = system: HT29 colon
HS 578T breast = system: HS 578T breast
SF-295 CNS = system: SF-295 CNS

## C=C(C)C1CC2(C)C(C)CC(OC(=O)/C(C)=C\C)CC2C(OC(=O)/C(C)=C\C)C1O (stereo not given)
786-0 renal
  TGI: > 100 µM
T-47D breast
  TGI: > 100 µM
UACC-62 melanoma
  TGI: > 100 µM
UO-31 renal
  TGI: > 100 µM
NCI-H23 lung
  TGI: > 100 µM
HCC-2998 colon
  TGI: > 100 µM
COLO 205 colon
  TGI: 48.4 µM
HT29 colon
  TGI: > 100 µM
HS 578T breast
  TGI: > 100 µM

## COC1CCC(O)C(/C=C/[N+](=O)[O-])C1 (stereo not given)
786-0 renal
  TGI: 3.67 µM
T-47D breast
  TGI: 44.8 µM
UACC-62 melanoma
  TGI: 19.3 µM
NCI-H23 lung
  TGI: 16.6 µM
HCC-2998 colon
  TGI: 3.14 µM
COLO 205 colon
  TGI: 5.7 µM
HT29 colon
  TGI: 11.2 µM
HS 578T breast
  TGI: 17.2 µM
SF-295 CNS
  TGI: 23.9 µM

## CN[C@@H](C)[C@@H](N)c1ccccc1
786-0 renal
  TGI: > 100 µM
UACC-62 melanoma
  TGI: > 100 µM
UO-31 renal
  TGI: > 100 µM
NCI-H23 lung
  TGI: > 100 µM
HCC-2998 colon
  TGI: > 100 µM
COLO 205 colon
  TGI: > 100 µM
HT29 colon
  TGI: > 100 µM
SF-295 CNS
  TGI: > 100 µM

## CC(C)(C)CC(C)(C)c1cc2c(O)c(c1)Cc1cc(C(C)(C)CC(C)(C)C)cc(c1O)Cc1cc(C(C)(C)CC(C)(C)C)cc(c1O)Cc1cc(C(C)(C)CC(C)(C)C)cc(c1O)Cc1cc(C(C)(C)CC(C)(C)C)cc(c1O)Cc1cc(C(C)(C)CC(C)(C)C)cc(c1O)C2
786-0 renal
  TGI: > 100 µM
UACC-62 melanoma
  TGI: > 100 µM
UO-31 renal
  TGI: > 100 µM
NCI-H23 lung
  TGI: > 100 µM
HCC-2998 colon
  TGI: > 100 µM
COLO 205 colon
  TGI: > 100 µM
HT29 colon
  TGI: > 100 µM
SF-295 CNS
  TGI: > 100 µM

## OCC1OC(OCC(O)C(O)C(O)C(/C=N/Nc2ccccc2)=N/Nc2ccccc2)C(O)C(O)C1O (stereo not given)
786-0 renal
  TGI: > 100 µM
T-47D breast
  TGI: 56.9 µM
UO-31 renal
  TGI: > 100 µM
NCI-H23 lung
  TGI: > 100 µM
HCC-2998 colon
  TGI: > 100 µM
COLO 205 colon
  TGI: > 100 µM
HT29 colon
  TGI: > 100 µM
HS 578T breast
  TGI: > 100 µM
SF-295 CNS
  TGI: > 100 µM

## O=C(Nc1cccc(Oc2nnc(Cl)c3ccccc23)c1)Nc1ccc(Cl)c(C(F)(F)F)c1
786-0 renal
  GI50: 0.767 µM
  TGI: 3.01 µM
T-47D breast
  GI50: 0.384 µM
  TGI: 2.24 µM
UO-31 renal
  GI50: 0.176 µM
  TGI: 4.19 µM
NCI-H23 lung
  GI50: 0.907 µM
  TGI: 4.36 µM
HCC-2998 colon
  GI50: 0.872 µM
  TGI: 3.48 µM
COLO 205 colon
  GI50: 0.97 µM
  TGI: 3.9 µM
HT29 colon
  GI50: 0.771 µM
  TGI: 3.14 µM
HS 578T breast
  GI50: 1.72 µM
  TGI: 8.18 µM
SF-295 CNS
  GI50: 0.657 µM
  TGI: 3.7 µM

## NNC(=S)N/N=C(/C(=O)Nc1cc(Cl)ccc1Cl)C1C(=O)Nc2ccccc2S1=O (stereo not given)
786-0 renal
  TGI: > 100 µM
UACC-62 melanoma
  TGI: > 100 µM
UO-31 renal
  TGI: > 100 µM
NCI-H23 lung
  TGI: > 100 µM
HCC-2998 colon
  TGI: > 100 µM
COLO 205 colon
  TGI: > 100 µM
HT29 colon
  TGI: > 100 µM
SF-295 CNS
  TGI: > 100 µM

## COc1c(NC(C)=O)cc(C)cc1NC(C)=O
786-0 renal
  TGI: > 100 µM
UACC-62 melanoma
  TGI: > 100 µM
HCC-2998 colon
  TGI: > 100 µM
COLO 205 colon
  TGI: > 100 µM
SF-295 CNS
  TGI: > 100 µM

## CCOC(=O)C1=C(O)CSC1=Nc1ccccc1
786-0 renal
  TGI: > 100 µM
UACC-62 melanoma
  TGI: > 100 µM
UO-31 renal
  TGI: > 100 µM
NCI-H23 lung
  TGI: > 100 µM
HCC-2998 colon
  TGI: > 100 µM
COLO 205 colon
  TGI: > 100 µM
HT29 colon
  TGI: > 100 µM
SF-295 CNS
  TGI: > 100 µM

## O=C1c2ccccc2C(=O)c2c(NCCNCCO)ccc(O)c21
786-0 renal
  TGI: 15.9 µM
UACC-62 melanoma
  TGI: 13.6 µM
UO-31 renal
  TGI: 5.58 µM
NCI-H23 lung
  TGI: 12 µM
HCC-2998 colon
  TGI: 17.8 µM
COLO 205 colon
  TGI: 10.3 µM
HT29 colon
  TGI: 10.2 µM
SF-295 CNS
  TGI: 15.8 µM

## Oc1ccc(O)c(-c2cc(-c3ccccc3)nn2-c2ccccc2)c1
786-0 renal
  GI50: 12.2 µM
  TGI: 25.2 µM
T-47D breast
  GI50: 19.6 µM
  TGI: 98.4 µM
UACC-62 melanoma
  GI50: 11.9 µM
  TGI: 44.9 µM
UO-31 renal
  GI50: 38.6 µM
  TGI: > 100 µM
NCI-H23 lung
  GI50: 14.3 µM
  TGI: 32.5 µM
COLO 205 colon
  GI50: 24.9 µM
  TGI: > 100 µM
HT29 colon
  GI50: 73.9 µM
  TGI: > 100 µM
HS 578T breast
  GI50: 19.6 µM
  TGI: 68 µM
SF-295 CNS
  GI50: 28.5 µM
  TGI: > 100 µM

## Cc1c(C(=O)C/C(=N/NC(=O)C[n+]2ccccc2)C(=O)Nc2ccccc2)[n+](=O)c2ccccc2n1O
786-0 renal
  TGI: > 100 µM
UACC-62 melanoma
  TGI: > 100 µM
UO-31 renal
  TGI: > 100 µM
NCI-H23 lung
  TGI: > 100 µM
HCC-2998 colon
  TGI: > 100 µM
COLO 205 colon
  TGI: > 100 µM
HT29 colon
  TGI: > 100 µM
SF-295 CNS
  TGI: > 100 µM

## O=C(c1cc2ccccc2o1)N(Cc1ccccc1)c1ccccc1
786-0 renal
  TGI: 46.7 µM
UACC-62 melanoma
  TGI: 28.1 µM
UO-31 renal
  TGI: 51.8 µM
NCI-H23 lung
  TGI: 71.2 µM
HCC-2998 colon
  TGI: 46.1 µM
COLO 205 colon
  TGI: 35.4 µM
HT29 colon
  TGI: 66 µM
SF-295 CNS
  TGI: > 100 µM

## C=CC[P+](c1ccccc1)(c1ccccc1)c1ccccc1
786-0 renal
  GI50: 27.6 µM
  TGI: > 100 µM
UACC-62 melanoma
  GI50: 2.69 µM
  TGI: > 100 µM
UO-31 renal
  GI50: 84 µM
  TGI: > 100 µM
HCC-2998 colon
  GI50: 3.19 µM
  TGI: > 100 µM
COLO 205 colon
  GI50: 2.66 µM
  TGI: 14.1 µM
HT29 colon
  GI50: 3.21 µM
  TGI: > 100 µM
HS 578T breast
  GI50: 10.1 µM
  TGI: > 100 µM
SF-295 CNS
  GI50: 4.58 µM
  TGI: 28.2 µM

## C[C@]12CCc3nonc3C1CC[C@@H]1C2CC[C@]2(C)NC(=O)CCC12 (stereo not given in full)
786-0 renal
  TGI: > 100 µM
UACC-62 melanoma
  TGI: > 100 µM
UO-31 renal
  TGI: > 100 µM
NCI-H23 lung
  TGI: > 100 µM
COLO 205 colon
  TGI: > 100 µM
HT29 colon
  TGI: > 100 µM
SF-295 CNS
  TGI: > 100 µM

## O=C1N(c2ccccc2)C(=O)C2(SC=NN2Cc2ccccc2)N1c1ccccc1 (stereo not given)
786-0 renal
  TGI: > 100 µM
UACC-62 melanoma
  TGI: > 100 µM
UO-31 renal
  TGI: > 100 µM
NCI-H23 lung
  TGI: > 100 µM
HCC-2998 colon
  TGI: > 100 µM
COLO 205 colon
  TGI: > 100 µM
HT29 colon
  TGI: > 100 µM
SF-295 CNS
  TGI: > 100 µM

## CN(C)c1ccc(/C=C2\N=C(c3ccc([N+](=O)[O-])cc3)OC2=O)cc1
786-0 renal
  TGI: > 100 µM
T-47D breast
  TGI: > 100 µM
UACC-62 melanoma
  TGI: > 100 µM
NCI-H23 lung
  TGI: > 100 µM
HCC-2998 colon
  TGI: 72.4 µM
COLO 205 colon
  TGI: > 100 µM
HT29 colon
  TGI: > 100 µM
HS 578T breast
  TGI: > 100 µM
SF-295 CNS
  TGI: > 100 µM

## COc1ccc(C(=O)C(C(=O)C(=O)Nc2ccc(Cl)c(Cl)c2)c2ccc(OC)cc2)cc1 (stereo not given)
786-0 renal
  TGI: > 100 µM
UACC-62 melanoma
  TGI: > 100 µM
UO-31 renal
  TGI: > 100 µM
NCI-H23 lung
  TGI: > 100 µM
HCC-2998 colon
  TGI: > 100 µM
HT29 colon
  TGI: > 100 µM
SF-295 CNS
  TGI: > 100 µM

## Cc1noc(C)c1-c1cc(O)cc(C(O)c2ccccc2)c1 (stereo not given)
786-0 renal
  GI50: 27.1 µM
  TGI: > 100 µM
T-47D breast
  GI50: 7.7 µM
  TGI: > 100 µM
UO-31 renal
  GI50: 1.08 µM
  TGI: > 100 µM
HCC-2998 colon
  GI50: 8.55 µM
  TGI: > 100 µM
COLO 205 colon
  GI50: 5.25 µM
  TGI: > 100 µM
HT29 colon
  GI50: 4.54 µM
  TGI: > 100 µM
HS 578T breast
  GI50: 1.93 µM
  TGI: 90.7 µM
SF-295 CNS
  GI50: 7.31 µM
  TGI: > 100 µM

## CC1(C)CCc2cc3c(cc2O1)OCC1c2cc4c(cc2OC31)OCO4 (stereo not given)
786-0 renal
  TGI: > 100 µM
UACC-62 melanoma
  TGI: > 100 µM
UO-31 renal
  TGI: > 100 µM
NCI-H23 lung
  TGI: > 100 µM
HCC-2998 colon
  TGI: > 100 µM
COLO 205 colon
  TGI: > 100 µM
HT29 colon
  TGI: > 100 µM
SF-295 CNS
  TGI: > 100 µM
